Measured values published in paper PMC11191602, “A novel and selective fluorescent ligand for the study of adenosine A2B receptors” (Pharmacology Research & Perspectives, 2024).
pKd: −log10 of the molar value.

Assays:
[1] = target: T1, human A2BR tagged with N‐terminal nanoluciferase (NLuc‐A2BR) (Homo sapiens, UniProt P29275); assay: NanoBRET saturation binding of PSB603‐BY630 in live HEK293G cells stably expressing NLuc‐A2BR; conditions: non‐specific binding defined with 1 μM MRS‐1706, 1 h 37°C, mean of five experiments
T1 construct: expressed in transfected cells
T1 sequence (P29275 1-332): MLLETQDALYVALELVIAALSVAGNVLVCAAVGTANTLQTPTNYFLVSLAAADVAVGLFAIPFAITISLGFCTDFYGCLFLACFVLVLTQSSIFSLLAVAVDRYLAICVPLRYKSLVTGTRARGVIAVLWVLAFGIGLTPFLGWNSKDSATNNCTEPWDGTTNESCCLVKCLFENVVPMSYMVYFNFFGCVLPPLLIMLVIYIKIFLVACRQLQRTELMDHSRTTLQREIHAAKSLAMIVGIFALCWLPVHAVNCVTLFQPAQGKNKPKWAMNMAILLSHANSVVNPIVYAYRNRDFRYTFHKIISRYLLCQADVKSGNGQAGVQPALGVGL
Procedure: Saturation and competition binding assays were performed as previously described.[36] Briefly, cells were seeded in 96‐well white clear‐bottomed Greiner plates pre‐treated with 10 μg/mL poly‐D‐lysine (Sigma‐Aldrich, Missouri USA) at a density of 30 000–35 000 cells per well in DMEM supplemented with 10% FBS. The following day medium was removed and cells were incubated with PSB603‐BY630 in the presence or absence of 1 μM MRS1706 (saturation binding assays) or competing ligand in the presence of 50 nM PSB603‐BY630 (competition binding assays) in HEPES buffered saline solution (HBSS; 145 mM NaCl, 5 mM KCl, 1.3 mM CaCl2, 1 mM MgSO4, 10 mM HEPES, 2 mM sodium pyruvate, 1.5 mM NaHCO3, 10 mM D‐glucose, pH 7.45) with 0.1% bovine serum albumin for 1 h at 37°C. […] The resulting bioluminescence resonance energy transfer (BRET) was measured using a PHERAstar FS plate reader (BMG Labtech) at 37°C. For each well, filtered light emissions at 460 nm (80 nm bandpass) and >610 nm (longpass) for the BODIPY630/650 ligand were simultaneously measured. BRET ratios were calculated by dividing the 610 nm emission by the 460 nm emission. […] For kinetic experiments, cells were preincubated for 10 min with 1:400 dilution of furimazine prior to addition of 200 nM PSB603‐BY630 and BRET ratios determined every 0.5 min. […]
Data were analyzed using Prism 7.4 software (GraphPad, San Diego, USA). […]

[2] = target: T2, endogenous A2BR (Homo sapiens, UniProt P29275); assay: cAMP GloSensor luminescence assay in HEK293G cells endogenously expressing A2BR; format: cell-based; conditions: 20 nM and 200 nM PSB603‐BY630, endogenous A2BR
T2 construct: HEK293G cells that express the cAMP biosensor Glosensor also endogenously express both A2BR and A2AR; host or cells: HEK293G
T2 sequence (P29275 1-332): T1 sequence (P29275 1-332)
Procedure: The cAMP GloSensor™ luminescence assay was performed according to the manufacturer's instructions (Promega Corporation, Madison, WI, USA). Briefly, after 24 h incubation at 37°C and 5% CO2 after cell plating (40 000 cells/well in 100 μL), medium was aspirated from each well of the 96‐well plate. Cells were incubated in 50 μL HEPES buffered saline solution (HBSS; 2 mM sodium pyruvate, 145 mM NaCl, 10 mM D‐glucose, 5 mM KCl, 1 mM MgSO4.7H2O, 10 mM HEPES, 1.3 mM CaCl2, 1.5 mM NaHCO3 in double‐distilled water, pH 7.45) containing 3% GloSensor™ cAMP reagent at 37°C for 1.5 h. For agonist studies, an initial baseline luminescence read was made at time zero, the plate was then removed from the plate‐reader and a further 50 μL HBSS containing agonist (2× final concentration) or HBSS (vehicle control) added. Luminescence was measured on an open channel (gain of 3600) immediately after these additions, and then continuously over 60 min, reading each well once every minute, by a PHERAstar FSX microplate reader (BMG Labtech, Offenburg, Germany) at 37°C. Increases in luminescence are indicative of intracellular cAMP accumulation, thus the temporal changes in relative cytosolic cAMP concentration were measured upon agonist or vehicle addition. Antagonist action was determined following 30 min pre‐incubation of HBSS in the presence of 20 and 200 nM PSB603‐BY630 and read as above. All conditions were performed in triplicates within each plate.

pKd [1]: 7.74
Compound: CCCn1c(=O)[nH]c2[nH]c(-c3ccc(S(=O)(=O)N4CCN(c5ccc(OCCNC(=O)CCCCCNC(=O)COc6ccc(/C=C/C7=[N+]8C(=Cc9ccc(-c%10cccs%10)n9[B-]8(F)F)C=C7)cc6)cc5)CC4)cc3)nc2c1=O [PSB603‐BY630]
effect on cAMP concentration‐response curve to BAY 60–6583 [2]: concentration‐dependent reduction in the maximal response to BAY 60–6583 without altering the EC50
